Measured values taken from patent US11278586B2, “Highly absorbable oral tyrosine formulation” (Kao Corporation, priority 2017, dated 2022).
Where a SMILES comes first, the peptide text is derived from it.

Key:
Solubility in water = assay type: physicochemical; conditions: dose of 0.55 mmol/kg body weight, an amount equivalent to 10 times the solubility of tyrosine
Experimental: Glycyltyrosine and alanyltyrosine are known to have high solubility as compared to tyrosine, and the solubility thereof in water at 20° C. is about 75 times and about 36 times that of tyrosine, respectively (Fust et al., (2001) J. Nutr.). […] In spite of this, an excellent action of improving bioabsorbability of tyrosine was confirmed only in the oral administration/ingestion of glycyltyrosine. Therefore, the action is considered not due to the improvement in solubility, but an effect unique to glycyltyrosine.

[1] = Bioabsorbability of tyrosine after oral administration to mice (plasma amino acids by LC-MS/MS); assay type: in vivo, C57B6J Mice; conditions: oral 0.55 mmol/kg body weight; for administered dipeptide detected in the plasma: at any time after administration (15-60 min), results not shown
Experimental: C57B6J Mice (CLEA Japan, Inc., 8 weeks old, male) were acclimatized for 1 week, and then the mice were divided into 4 groups with similar body weights (N=4 for each group). Each of amino acids dissolved in water was orally administered to the mice by sonde at the following dose in Table 1. Venous blood was collected from the fundus using a heparin-treated micro hematocrit tube (VITREX) under isoflurane anesthesia before administration and 15, 30, 45, and 60 minutes after administration. These were centrifuged (8,000×g, 10 minutes, 4° C.) to obtain plasma. Thereafter, a 15% by mass of aqueous sulfosalicylic acid solution which was three times amount of the plasma was added thereto, mixed, and centrifuged (8,000×g, 10 minutes, 4° C.) to remove the protein, and the obtained plasma was used as a sample for analysis. Quantification of amino acids in the sample for analysis was performed using LC-MS/MS. Infinity 1290 (Agilent) was used for liquid chromatography, and 3200 QTRAP (AB Sciex) was used for mass spectrometry.
A tyrosine administration group and a tyrosine and glycine (each equimolar amount) mixed administration group were set as controls for the glycyltyrosine administration group. An alanyltyrosine administration group was also set for effect comparison.

[2] = water at 20° C.; Fust et al. (2001) J. Nutr.; cited from earlier work

Row | blood tyrosine concentration compared with the tyrosine administration group ([1]; 15 minutes after administration, Dunnett p<0.01, FIG. 1) | maximum blood concentration (Cmax) of tyrosine compared to the tyrosine administration group ([1]; FIG. 2) | blood glycine concentration versus the tyrosine and glycine mixed administration group ([1]; at any time after administration, FIG. 1) | area under the increased blood concentration-time curve (iAUC) of tyrosine compared to the tyrosine administration group ([1]; until 60 minutes after administration, FIG. 2) | SMILES | dissolution of the administration sample in water (Solubility in water) | administered dipeptide detected in the plasma [1] | solubility in water relative to that of tyrosine [2]
1 | significantly higher | significantly high values | no significant difference | significantly high values | NCC(=O)N[C@@H](Cc1ccc(O)cc1)C(=O)O [glycyltyrosine, Glycyl-L-tyrosine dihydrate] (H-Gly-Tyr-OH) | completely dissolved | not detected | about 75 times
2 | – | – | – | – | C[C@H](N)C(=O)N[C@@H](Cc1ccc(O)cc1)C(=O)O [alanyltyrosine, L-Alanyl-L-tyrosine, reference compound] (H-Ala-Tyr-OH) | completely dissolved | not detected | about 36 times
